Values of other authors in patent US7279279B2, “Compositions and methods for determining anti-viral drug susceptibility and resistance and anti-viral drug screening” (Monogram Biosciences, Inc., priority 1996, dated 2007).

System: HIV
Settings: background statement on drug treatment of HIV; no test conditions given

For `Cc1cn([C@H]2C[C@H](N=[N+]=[N-])[C@@H](CO)O2)c(=O)[nH]c1=O` [AZT, zidovudine], the reduce virus replication is given as “about 90%”.
